# Calls of active or inactive are those of the source.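 How the source made its calls: active means compounds giving half or more protection of infected cells from virus-caused growth loss, again on retest; inactive means the rest.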
# System: CEM cells HIV-1 protection, formazan growth assay
# Test: NCI AIDS Antiviral Assay
# Settings: for IC50: measured here: growth of uninfected CEM cells
# Method in brief: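 CEM (human) cells, HIV-1 infected vs uninfected, 5-point dosing, formazan growth read-out. Retest threshold 50% protection.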
SMILES,EC50 [µM],IC50 [µM],outcome
CC1N(O)C(c2ccccc2)C(c2ccccc2)=[N+]1[O-] (stereo unspecified),> 200,> 200,
O=C1NC2OC(CO)C(O)C2O1 (stereo unspecified),> 200,> 200,
CC(=O)NNC(=S)N/C=C(/C(=O)c1ccccc1)c1ccccc1,> 479,302,
CCN1CCC(O)(/C=C/c2ccccc2)C(C(=O)/C=C/c2ccccc2)C1 (stereo unspecified),,,inactive
S=C(N/N=C(\C(=N/NC(=S)N1CCCCC1)c1ccccn1)c1ccccn1)N1CCCCC1,> 200,39.8,
O=C1COC(c2ccccc2O)=NN1CCCl,> 141,> 141,
CC1=C2C(O)C(C(C)CO)C(O)CC2(C)C(O)CC1 (stereo unspecified),,,inactive
CCO[C@@H]1N(C2CC(N=[N+]=[N-])C(CO)O2)C(=O)NC(=O)[C@]1(C)Cl (stereo partly specified),> 200,> 200,
Cn1cnc([N+](=O)[O-])c1S,> 200,67.6,
COc1cc(/C=C2\CCC(C)C3=C(c4cc(OC)c(OC)c(OC)c4)C(C#N)=C(N)OC32)cc(OC)c1OC (stereo unspecified),,,inactive
CCOC(=O)C(NC(=O)CC)(Nc1ccc(S(=O)(=O)Nc2ncccn2)cc1)C(F)(F)F (stereo unspecified),> 200,> 200,
Cc1ccc(S(=O)(=O)CNC(=O)C(O)(O)C(F)(F)F)cc1,> 200,> 200,
CCN(CC)C(C)C(=O)Nc1cccc(Cl)c1C (stereo unspecified),> 50.1,> 50.1,
CC(=O)c1cc2c3c(c1)c1cc4c(cc1c(=O)n3CC2)OCO4,,,inactive
CC1CSC(=S)N1C(=O)N1C(=S)SCC1C (stereo unspecified),,,inactive
Cn1c(=O)oc2ccc(S(=O)(=O)Nc3ccc(Cl)cc3[N+](=O)[O-])cc21,> 200,28.2,
COC(=O)[C@]1(C)CCCC2(C)C1CC[C@H]1C=C(C)[C@H]3CCC12C3 (stereo partly specified),> 112,> 112,
C[Si](C)(C)C(CCCCSc1ccccc1)(Sc1ccccc1)Sc1ccccc1,,,inactive
[Cu+2].[O-]/N=C/c1ccc[oH+]1.[O-]/N=C/c1ccc[oH+]1,> 200,11.7,
NC(=O)c1nnc2ccc(F)cc2c1N,> 200,70.8,
COc1cc(C2c3cc4c(cc3OC(Nc3ccccc3)C2C)OCO4)cc(OC)c1OC (stereo unspecified),> 200,0.275,
C=C1CC(C#N)(C#N)[C@H]2C3CCCC3C[C@@H]12 (stereo partly specified) (tested in a mixture with another compound),> 200,33.1,

SMILES,EC50 [µM],IC50 [µM],outcome
O=C1c2cccc3cc([N+](=O)[O-])cc(c23)C(=O)N1CCc1ccccn1,> 200,4.37,
CN(C)C=O.CN(C)C=O.CN1C(C(=O)Nc2ccccn2)=C([O-])c2ccccc2S1(=O)=O.CN1C(C(=O)Nc2ccccn2)=C([O-])c2ccccc2S1(=O)=O.[Cu+2],,,inactive
C[C@H]1CN[C@@H]2[C@@H](C)[C@H]3[C@@H](C[C@H]4[C@@H]5CC[C@H]6C[C@@H](N)CC[C@]6(C)[C@H]5CC[C@]34C)O[C@@]2(O)C1,> 38,1.74,
Cn1c(=O)c2c(nc3n(Cc4ccccc4)c(=O)c(NCCCBr)cn23)n(C)c1=O,30.9,41.7,
CC(=O)OC1CCC2(C)CC3C=CC2(OO3)C1(C)C (stereo unspecified),> 200,10.7,
Cn1c(/C=C(\O)c2ccc(Cl)cc2)nc2ccccc21,> 91.2,> 91.2,
Cc1cc(S(=O)(=O)Nc2nnc3c4scc(C)c4ncn23)c(S)cc1Cl,45.7,50.1,
CC1(c2ccccc2)OC(=O)c2ccccc21 (stereo unspecified),> 200,> 100,
Cc1cn(C2CCC(=O)C2)c(=O)[nH]c1=O (stereo unspecified),,,inactive
CC(=O)OC(OC(C)=O)c1ncccc1C(=O)OC(C)C,> 851,112,
CC(=O)Nc1ccc(C(=O)NN2C(=O)C(Cl)/C2=C/c2ccco2)cc1 (stereo unspecified),,,inactive
COC1/C=C\OC2(C)Oc3c(C)c(O)c4c(O)c(c(/C=N\OC(C(=O)O)C(C)C)c(O)c4c3C2=O)NC(=O)/C(C)=C\C=C/C(C)C(O)C(C)C(O)C(C)C(OC(C)=O)C1C (stereo unspecified),> 100,40.7,
CC1C=C(CCCCCCCCCCCC[C@@H](O)[C@@H]2CC[C@@H]([C@@H]3CC[C@@H](C(O)CCCCCCCCCCCCC4=C[C@H](C)OC4=O)O3)O2)C(=O)O1 (stereo partly specified),> 200,0.204,
O=C1NC(=O)c2ncccc21,> 200,> 200,
CCO[Si](C)(OCC)OCC,> 200,> 200,
CC(N)C(=O)NC(C)C(=O)NC(C)C(=O)NC(C)C(=O)NC(C)C(=O)NC(C)C(=O)O (stereo unspecified),> 100,> 100,inactive
Cc1nc(C)c(C(=O)NNC(=O)c2ccccc2)cc1C(=O)NNC(=O)c1ccccc1,> 200,> 200,
N#Cc1c(N)c(C(=O)Nc2ccccc2)n2c1CCC2,> 200,> 200,
C=CCN1C2Cc3cc(OC)c(OC)cc3C1Cc1cc(OC)c(OC)cc12,> 603,135,
N/C(=N\N=C\C1CC2C=CC1C2)NO (stereo unspecified),,,inactive
O=C(CC1(O)C(=O)Nc2c(Cl)ccc(Cl)c21)c1ccc(Cl)cc1Cl (stereo unspecified),> 12.9,> 12.9,
CC1=CCC[C@H]2[C@](C)(CC3=CC(=O)C(SCC(C)C)=CC3=O)[C@@H](C)CC[C@]12C,> 200,2.14,

SMILES,EC50 [µM],IC50 [µM],outcome
CC(C)(C)C(=O)OCOP(=O)(OCOC(=O)C(C)(C)C)OCC1OC(N2C=CC(N)NC2=O)CC1F (stereo unspecified),1.12,87.1,
C[C@@]12C[C@@H](OC(=O)[C@]1(C)O)[C@@H]([C@]1(O)CC[C@H]3[C@@H]4C[C@H]5O[C@]56CC=CC(=O)[C@]6(C)[C@H]4CC[C@@]31C)C2,0.02,0.324,
COc1c(OC)c(OC)c2c(c1OC)OC(c1ccc(O)cc1)CC2=O (stereo unspecified),> 200,28.8,
N#Cc1cccc(/C=C2\CCc3ccccc3C2=O)c1,> 28.2,20.9,
O=C(CNc1ccccc1Cl)Nn1c(-c2ccccc2)nc2ccccc2c1=O,> 200,30.2,
S=C1NC2=C(COc3ccccc32)C(c2ccc(Cl)cc2)N1 (stereo unspecified),> 200,23.4,
Cc1nnc2c3nnc(C)n3c3ccccc3n12,,,inactive
CCOC(=O)C(C)c1nc2cc(C(F)(F)F)ccc2[nH]c1=O (stereo unspecified),> 200,81.3,
CCP(=O)(CC)C(Cl)(Cl)C(O)C(Cl)(Cl)Cl (stereo unspecified),> 200,> 200,
O=[N+]([O-])C1C=Nc2ccccc2N=C1,> 200,> 200,
CC1=CC2=C(C(N)=O)C(=O)OC2(C)C(c2ccccc2)C1 (stereo unspecified),> 200,> 200,
C=C(c1ccc(OC)cc1)C(CC)c1ccc(OC)cc1 (stereo unspecified),> 200,37.2,
CN(/N=C/c1ccccn1)C1=NCCCCN1,> 200,> 200,
COC(=O)c1cc2cc(OC)c(OC)cc2cc(C(=O)OC)c1=O,> 10.7,> 10.7,
O=C(CCc1ccccc1)CC1OC(=O)C(Cl)=C1Cl (stereo unspecified),> 33.1,> 33.1,
CC1=CC(=O)/C(=C/n2c(=S)[nH]c3ccccc32)C(=O)O1,> 200,> 200,
O=C(CC(=O)C(=O)Nc1ccccc1)CC(c1ccccc1)c1c(O)c2ccccc2oc1=O (stereo unspecified),> 550,263,
S=C1SCCS1,> 200,> 200,
CC1(C)OCC(C2OC(OC(=O)c3ccc([N+](=O)[O-])cc3)C3OC(C)(C)OC23)O1 (stereo unspecified),,,inactive
Cc1ccc(C2(Br)C(=O)c3ccccc3C2=O)cc1,> 200,> 200,
COc1ccc(N(C(=O)NCCO)c2ccccc2)cc1,> 200,> 200,
CC(=O)OC[C@@H](COC(=O)/C=C/c1ccc(O)cc1)OC1OC(CO)C(O)C(O)C1O (stereo partly specified),,,inactive

SMILES,EC50 [µM],IC50 [µM],outcome
CCc1oc2ccc(OC)c3c2c1C=CC=C3,,,inactive
Cc1ccc(OCC2OC(n3cnc4nc(N)nc(Cl)c43)CC2Oc2ccc(C)cc2)cc1 (stereo unspecified),> 200,> 200,
c1cncc(C2c3[nH]c4ccccc4c3CCN2CCCN2CCCCC2)c1 (stereo unspecified),> 3.89,> 3.89,
O=c1[nH]c(=O)c2[nH]c(Cl)nc2[nH]1,> 28.2,> 28.2,
O=C1c2ccccc2C(=O)N1CSS(=O)(=O)O,> 200,> 200,
CCC(C)SSc1ccccc1C(=O)Nc1ccc(Cl)cc1 (stereo unspecified),> 200,0.776,
C[C@@H](NC(=O)Cn1c(Cl)nc2ccccc21)c1ccccc1,> 200,13.5,
O=C(CS)Nc1cccc(O)c1,> 200,> 200,
COc1cccc(/C=N/[N-]C(N)=O)c1[O-].[OH3+].[Zn+2],> 447,132,
NC1=NN(c2ccccc2)C2(c3ccncc3C(=O)O)C1C(N)=NN2c1ccccc1 (stereo unspecified),> 200,> 200,
Cc1csc(=Nc2ccccc2)n1CCC(O)(P(=O)(O)O)P(=O)(O)O,> 200,9.55,
CC(=O)OC1(CSc2ccccc2)CCCCC1,> 200,49,
O=C1CSC(Cc2nc3ccccc3o2)=N1,> 200,4.79,
CC(=S)N/C=C(\C#N)S(=O)(=O)c1ccc(C)cc1,> 200,> 200,
Cc1ccc(-c2oc3ccccc3c(=O)c2O)cc1,> 200,53.7,
CC1(C)C2CCC(CN)(C2)C1N (stereo unspecified),> 200,> 200,
CC1(C)OCC[C@@H]1[Si](C)(C)C,,,inactive
Cc1ccc(-c2n[nH]c(=O)n2N2C(=O)c3ccccc3C2=O)cc1,> 200,> 200,
O=C(Nc1ncnc2c1ncn2C1OC(CO)CC1F)c1ccccc1 (stereo unspecified),,,inactive
CCCCCCCCCCCCCCCC(=O)Nc1ccn(C2CSC(COP(=O)(O)OC3CC(n4ccc(NC(=O)CCCCCCCCCCCCCCC)nc4=O)OC3CO)O2)c(=O)n1 (stereo unspecified),9.55,> 200,
CC(=O)Oc1cc2c(cc1OCC(F)(F)F)[C@H]1CC[C@]3(C)[C@@H](OC(C)=O)CC[C@H]3[C@@H]1CC2=O,> 200,22.4,
COc1ccc(Cc2c[n+](C)cc3cc(N=O)c(OC)cc23)cc1O,> 200,> 200,
